In brackets after ≈: the same amount, converted by molar mass. Activity calls are given as the source filed them. The calls are words filed in the database; no cut-off is given here.
Key:
[1] = Zinc chelation-dependent inhibition of VIM-2 (unknown origin) expressed in Escherichia coli BL21 (DE3) using nitrocefin as substrate preincubated with enzyme for 5 to 10 mins followed by substrate addition
[2] = Zinc chelation-dependent inhibition of IMP-4 (unknown origin) expressed in Escherichia coli BL21 (DE3) using imipenem as substrate preincubated with enzyme for 5 to 10 mins followed by substrate addition
Escherichia coli [3] = experiment: Antibacterial activity against NDM-1 producing Escherichia coli DH5alpha assessed as decrease in bacterial growth incubated for 16 to 20 hrs by CLSI based microdilution method; format: functional; conditions: DH5[alpha], time 16-20 hrs
Escherichia coli [4] = experiment: Antibacterial activity against VIM-1 producing Escherichia coli DH5alpha assessed as decrease in bacterial growth incubated for 16 to 20 hrs by CLSI based microdilution method; format: functional; conditions: DH5[alpha], time 16-20 hrs
Enterobacter cloacae = experiment: Antibacterial activity against MBL producing Enterobacter cloacae isolates assessed as inhibition of bacterial growth at 64 ug/ml incubated for 16 to 20 hrs by CLSI based microdilution method; format: functional, organism-based; conditions: dose 64.0 µg/ml, time 16-20 hrs
Klebsiella oxytoca = experiment: Antibacterial activity against MBL producing Klebsiella oxytoca isolates assessed as inhibition of bacterial growth at 64 ug/ml incubated for 16 to 20 hrs by CLSI based microdilution method; format: functional, organism-based; conditions: dose 64.0 µg/ml, time 16-20 hrs
Citrobacter freundii = experiment: Antibacterial activity against MBL producing Citrobacter freundii isolates assessed as inhibition of bacterial growth at 64 ug/ml incubated for 16 to 20 hrs by CLSI based microdilution method; format: functional, organism-based; conditions: dose 64.0 µg/ml, time 16-20 hrs
Enterobacter hormaechei = experiment: Antibacterial activity against MBL producing Enterobacter hormaechei isolates assessed as inhibition of bacterial growth at 64 ug/ml incubated for 16 to 20 hrs by CLSI based microdilution method; format: functional, organism-based; conditions: dose 64.0 µg/ml, time 16-20 hrs
Pseudomonas aeruginosa = experiment: Antibacterial activity against MBL producing Pseudomonas aeruginosa isolates assessed as inhibition of bacterial growth at 64 ug/ml incubated for 16 to 20 hrs by CLSI based microdilution method; format: functional, organism-based; conditions: dose 64.0 µg/ml, time 16-20 hrs
Escherichia coli [5] = experiment: Antibiotic adjuvant activity against meropenem-treated VIM-1 producing Escherichia coli DH5 alpha assessed as bacterial growth at 8 ug/ml incubated for 16 to 20 hrs in the presence of meropenem and 100 uM zinc sulfate by CLSI based microdilution method; format: functional; conditions: dose 8 µg/ml; time 16-20 hrs
Escherichia coli [6] = experiment: Antibiotic adjuvant activity against meropenem-treated VIM-1 producing Escherichia coli DH5 alpha assessed as bacterial growth at 8 ug/ml incubated for 16 to 20 hrs in the presence of meropenem by CLSI based microdilution method; format: functional; conditions: dose 8 µg/ml; time 16-20 hrs
Escherichia coli [7] = experiment: Antibacterial activity against VIM-1 producing Escherichia coli DH5 alpha assessed as bacterial growth at 8 ug/ml incubated for 16 to 20 hrs by CLSI based microdilution method; format: functional; conditions: dose 8 µg/ml; time 16-20 hrs
Escherichia coli [8] = experiment: Antibiotic adjuvant activity against meropenem-treated IMP-4 producing Escherichia coli DH5 alpha assessed as inhibition of bacterial growth at 8 ug/ml incubated for 16 to 20 hrs in the presence of meropenem and 1 to 10 uM zinc sulfate by CLSI based microdilution method; format: functional, organism-based; conditions: dose 8.0 µg/ml, time 16-20 hrs
[9] = Acute toxicity in BALB/c mouse assessed as pathological changes in liver at 50 mg/kg, ip administered as single dose measured after 24 hrs by hematoxylin and eosin staining based assay; format: organism-based; conditions: in vivo
[10] = Acute toxicity in BALB/c mouse assessed as change in WBC count at 50 mg/kg, ip administered as single dose measured after 24 hrs; format: organism-based; conditions: in vivo
[11] = Acute toxicity in BALB/c mouse assessed as change in RBC count at 50 mg/kg, ip administered as single dose measured after 24 hrs; format: organism-based; conditions: in vivo
[12] = Acute toxicity in BALB/c mouse assessed as change in platelet count at 50 mg/kg, ip administered as single dose measured after 24 hrs; format: organism-based; conditions: in vivo
[13] = Acute toxicity in BALB/c mouse assessed as change in albumin level in serum at 50 mg/kg, ip administered as single dose measured after 24 hrs; format: organism-based; conditions: in vivo
[14] = Non competitive inhibition of VIM-2 (unknown origin) assessed as inhibition of substrate hydrolysis by measuring decrease in Vmax using nitrocefin as substrate preincubated with enzyme for 5 mins followed by substrate addition by Lineweaver-Burk plot analysis
[15] = Zinc chelation-dependent inhibition of NDM-1 (unknown origin) expressed in Escherichia coli DH5 alpha using meropenem as substrate preincubated with enzyme for 5 mins followed by substrate addition in the presence of zinc sulfate
Escherichia coli [16] = experiment: Antibacterial activity against NDM-1 producing Escherichia coli DH5 alpha assessed as bacterial growth at 8 ug/ml incubated for 16 to 20 hrs by CLSI based microdilution method; format: functional; conditions: dose 8 µg/ml; time 16-20 hrs
Escherichia coli [17] = experiment: Antibiotic adjuvant activity against meropenem-treated NDM-1 producing Escherichia coli DH5 alpha assessed as bacterial growth at 8 ug/ml incubated for 16 to 20 hrs in the presence of meropenem by CLSI based microdilution method; format: functional; conditions: dose 8 µg/ml; time 16-20 hrs
Escherichia coli [18] = experiment: Antibiotic adjuvant activity against meropenem-treated NDM-1 producing Escherichia coli DH5 alpha assessed as inhibition of bacterial growth at 8 ug/ml incubated for 16 to 20 hrs in the presence of meropenem and 1 to 10 uM zinc sulfate by CLSI based microdilution method; format: functional, organism-based; conditions: dose 8.0 µg/ml, time 16-20 hrs
Escherichia coli [19] = experiment: Antibiotic adjuvant activity against meropenem-treated NDM-1 producing Escherichia coli DH5 alpha assessed as inhibition of bacterial growth at 8 ug/ml incubated for 16 to 20 hrs in the presence of meropenem and 100 uM zinc sulfate by CLSI based microdilution method; format: functional, organism-based; conditions: dose 8.0 µg/ml, time 16-20 hrs
Klebsiella pneumoniae [20] = experiment: (§1) Antibiotic adjuvant activity against meropenem-treated NDM-producing carbapenem resistant Klebsiella pneumoniae infected in BALB/c mouse sepsis model assessed as reduction of bacterial load in kidney at 10 mg/kg, ip in the presence of meropenem observed for 2 days; format: functional, organism-based; conditions: time 2.0 day
Klebsiella pneumoniae [21] = experiment: as §1, with “reduction in neutrophil infiltration in red pulp” for “reduction”, “spleen” for “bacterial load in kidney”, “days by HE staining based assay” for “days”; format: functional, organism-based; conditions: time 2.0 day
Escherichia coli [22] = experiment: Synergistic antibacterial activity against VIM-1 producing Escherichia coli DH5alpha assessed as fractional inhibitory concentration index incubated for 16 to 20 hrs in presence of meropenem by checkerboard assay; format: functional, DH5[alpha]; conditions: time 16-20 hrs
Escherichia coli [23] = experiment: Antibiotic adjuvant activity against IMP-4 producing Escherichia coli DH5alpha assessed as potentiation of meropenem-induced antibacterial activity incubated for 16 to 20 hrs by agar disc diffusion assay; format: functional, organism-based; conditions: DH5[alpha], time 16-20 hrs
Escherichia coli [24] = experiment: Antibiotic adjuvant activity against NDM-1 producing Escherichia coli DH5alpha assessed as potentiation of meropenem-induced antibacterial activity incubated for 16 to 20 hrs by agar disc diffusion assay; format: functional, organism-based; conditions: DH5[alpha], time 16-20 hrs
Escherichia coli [25] = experiment: Antibiotic adjuvant activity against NDM-1 producing Escherichia coli DH5alpha assessed as potentiation of meropenem-induced antibacterial activity by measuring meropenem MIC at 16 ug/ml incubated for 16 to 20 hrs by checkerboard assay (reference value: 32 ug/ml); format: functional; conditions: DH5[alpha], dose 16 µg/ml, time 16-20 hrs
Escherichia coli [26] = experiment: Antibiotic adjuvant activity against NDM-1 producing Escherichia coli DH5alpha assessed as potentiation of meropenem-induced antibacterial activity by measuring fold reduction in meropenem MIC at 16 ug/ml incubated for 16 to 20 hrs by checkerboard assay; format: functional, DH5[alpha]; conditions: dose 16 µg/ml; time 16-20 hrs

| SMILES | IC50 [1] [µM] | IC50 [2] [µM] | MIC (Escherichia coli [3]) [µg/mL] | MIC (Escherichia coli [4]) [µg/mL] | Activity (Enterobacter cloacae) | Activity (Klebsiella oxytoca) | Activity (Citrobacter freundii) | Activity (Enterobacter hormaechei) | Activity (Pseudomonas aeruginosa) | Activity (Escherichia coli [5]) [%] | Activity (Escherichia coli [6]) [%] | Activity (Escherichia coli [7]) [%] | Activity (Escherichia coli [8]) | Activity [9] | Activity [10] | Activity [11] | Activity [12] | Activity [13] | Ki [14] [µM] | Activity [15] | also measured |
| --- | --- | --- | --- | --- | --- | --- | --- | --- | --- | --- | --- | --- | --- | --- | --- | --- | --- | --- | --- | --- | --- |
| C[C@H](C(=O)O)N(Cc1cccc(C(=O)O)n1)Cc1cccc(C(=O)O)n1 | 1.56 | 4.4 | 128 (≈ 356 µM) | 128 (≈ 356 µM) | inactive | inactive | inactive | inactive | inactive | 100 | <10 | 95 | Active | Non-Toxic | Non-Toxic | Non-Toxic | Non-Toxic | Non-Toxic | 6.16 | inactive | Activity (Escherichia coli [16]): 95%; Activity (Escherichia coli [17]): <10%; Activity (Escherichia coli [18]): Active; Activity (Escherichia coli [19]): inactive; Activity (Klebsiella pneumoniae [20]): Active; Activity (Klebsiella pneumoniae [21]): Active; fractional inhibitory concentration index (FICI) (Escherichia coli [22]): 0.07; Activity (Escherichia coli [23]): Active; Activity (Escherichia coli [24]): Active; MIC (Escherichia coli [25]): < 0.0312 µg/mL; fold change (FC) (Escherichia coli [26]): >1000 |
| C[C@@H](C(=O)O)N(Cc1cccc(C(=O)O)n1)Cc1cccc(C(=O)O)n1 | 1.54 | 4.17 | 128 (≈ 356 µM) | 128 (≈ 356 µM) | inactive | inactive | inactive | inactive | inactive | 100 | <10 | 95 | Active | Non-Toxic | Non-Toxic | Non-Toxic | Non-Toxic | Non-Toxic | 5.83 | inactive | Activity (Escherichia coli [16]): 95%; Activity (Escherichia coli [17]): <10%; Activity (Escherichia coli [18]): Active; Activity (Escherichia coli [19]): inactive; Activity (Klebsiella pneumoniae [20]): Active; Activity (Klebsiella pneumoniae [21]): Active; fractional inhibitory concentration index (FICI) (Escherichia coli [22]): 0.07; Activity (Escherichia coli [23]): Active; Activity (Escherichia coli [24]): Active; MIC (Escherichia coli [25]): < 0.0312 µg/mL; fold change (FC) (Escherichia coli [26]): >1000 |

Reference: ChEMBL document CHEMBL4828719, “H2dpa derivatives containing pentadentate ligands: An acyclic adjuvant potentiates meropenem activity in vitro and in vivo against metallo-β-lactamase-producing Enterobacterales” (Eur J Med Chem, 2021)
